Bridge positions count the residues as written; N and C are the ends. Ends that are not written are not given here.
System: patients with chronic idiopathic constipation (CIC)
Test: Second phase 3 CIC trial: change from baseline in CSBMs/week
Assay type: in vivo, human
Conditions: MRA
[1] = Week 3, 6 mg, ITT Population-Excluding Duplicate Patients
[2] = Week 4, 3 mg, ITT Population-Excluding Duplicate Patients
[3] = Week 4, 6 mg, ITT Population-Excluding Duplicate Patients
[4] = Week 5, 3 mg, ITT Population-Excluding Duplicate Patients
[5] = Week 5, 6 mg, ITT Population-Excluding Duplicate Patients
[6] = Week 6, 3 mg, ITT Population-Excluding Duplicate Patients
[7] = Week 6, 6 mg, ITT Population-Excluding Duplicate Patients
[8] = Week 7, 3 mg, ITT Population-Excluding Duplicate Patients
[9] = Week 7, 6 mg, ITT Population-Excluding Duplicate Patients
[10] = Week 8, 3 mg, ITT Population-Excluding Duplicate Patients

Asn^1-Asp^2-Glu^3-Cys^4-Glu^5-Leu^6-Cys^7-Val^8-Asn^9-Val^10-Ala^11-Cys^12-Thr^13-Gly^14-Cys^15-Leu^16 (NDECELCVNVACTGCL; disulfide 4-12, 7-15) [Plecanatide, uroguanylin analogue, guanylate cyclase-C agonist; (C4:C12, C7:C15) bicycle peptide]
Change from Baseline in CSBMs, Mean (SD) (Week 3, 6 mg, ITT Population): 1.82 (2.949) CSBMs/week
Change from Baseline in CSBMs, Difference from Placebo [1]: 0.61 CSBMs/week
Change from Baseline in CSBMs, LS Mean (SE) [1]: 1.83 (0.154) CSBMs/week
Change from Baseline in CSBMs, Mean (SD) [1]: 1.83 (2.958) CSBMs/week
Change from Baseline in CSBMs, Mean (SD) (Week 3, Active Combined, ITT Population-Excluding Duplicate Patients): 1.89 (3.049) CSBMs/week
Change from Baseline in CSBMs, Mean (SD) (Week 3, Active Combined, ITT Population): 1.88 (3.032) CSBMs/week
Change from Baseline in CSBMs, Difference from Placebo (Week 4, 3 mg, ITT Population): 0.91 CSBMs/week
Change from Baseline in CSBMs, LS Mean (SE) (Week 4, 3 mg, ITT Population): 2.16 (0.153) CSBMs/week
Change from Baseline in CSBMs, Mean (SD) (Week 4, 3 mg, ITT Population): 2.19 (3.395) CSBMs/week
Change from Baseline in CSBMs, Difference from Placebo [2]: 0.92 CSBMs/week
Change from Baseline in CSBMs, LS Mean (SE) [2]: 2.20 (0.156) CSBMs/week
Change from Baseline in CSBMs, Mean (SD) [2]: 2.22 (3.418) CSBMs/week
Change from Baseline in CSBMs, Difference from Placebo (Week 4, 6 mg, ITT Population): 0.75 CSBMs/week
Change from Baseline in CSBMs, LS Mean (SE) (Week 4, 6 mg, ITT Population): 2.00 (0.152) CSBMs/week
Change from Baseline in CSBMs, Mean (SD) (Week 4, 6 mg, ITT Population): 2.03 (3.243) CSBMs/week
Change from Baseline in CSBMs, Difference from Placebo [3]: 0.75 CSBMs/week
Change from Baseline in CSBMs, LS Mean (SE) [3]: 2.02 (0.154) CSBMs/week
Change from Baseline in CSBMs, Mean (SD) [3]: 2.03 (3.254) CSBMs/week
Change from Baseline in CSBMs, Mean (SD) (Week 4, Active Combined, ITT Population-Excluding Duplicate Patients): 2.13 (3.335) CSBMs/week
Change from Baseline in CSBMs, Mean (SD) (Week 4, Active Combined, ITT Population): 2.11 (3.318) CSBMs/week
Change from Baseline in CSBMs, Difference from Placebo (Week 5, 3 mg, ITT Population): 0.84 CSBMs/week
Change from Baseline in CSBMs, LS Mean (SE) (Week 5, 3 mg, ITT Population): 2.31 (0.154) CSBMs/week
Change from Baseline in CSBMs, Mean (SD) (Week 5, 3 mg, ITT Population): 2.39 (3.375) CSBMs/week
Change from Baseline in CSBMs, Difference from Placebo [4]: 0.85 CSBMs/week
Change from Baseline in CSBMs, LS Mean (SE) [4]: 2.35 (0.157) CSBMs/week
Change from Baseline in CSBMs, Mean (SD) [4]: 2.43 (3.395) CSBMs/week
Change from Baseline in CSBMs, Difference from Placebo (Week 5, 6 mg, ITT Population): 0.48 CSBMs/week
Change from Baseline in CSBMs, LS Mean (SE) (Week 5, 6 mg, ITT Population): 1.95 (0.153) CSBMs/week
Change from Baseline in CSBMs, Mean (SD) (Week 5, 6 mg, ITT Population): 1.99 (3.019) CSBMs/week
Change from Baseline in CSBMs, Difference from Placebo [5]: 0.46 CSBMs/week
Change from Baseline in CSBMs, LS Mean (SE) [5]: 1.97 (0.154) CSBMs/week
Change from Baseline in CSBMs, Mean (SD) [5]: 1.99 (3.025) CSBMs/week
Change from Baseline in CSBMs, Mean (SD) (Week 5, Active Combined, ITT Population-Excluding Duplicate Patients): 2.20 (3.216) CSBMs/week
Change from Baseline in CSBMs, Mean (SD) (Week 5, Active Combined, ITT Population): 2.18 (3.202) CSBMs/week
Change from Baseline in CSBMs, Difference from Placebo (Week 6, 3 mg, ITT Population): 1.01 CSBMs/week
Change from Baseline in CSBMs, LS Mean (SE) (Week 6, 3 mg, ITT Population): 2.32 (0.155) CSBMs/week
Change from Baseline in CSBMs, Mean (SD) (Week 6, 3 mg, ITT Population): 2.43 (3.548) CSBMs/week
Change from Baseline in CSBMs, Difference from Placebo [6]: 1.01 CSBMs/week
Change from Baseline in CSBMs, LS Mean (SE) [6]: 2.35 (0.158) CSBMs/week
Change from Baseline in CSBMs, Mean (SD) [6]: 2.45 (3.571) CSBMs/week
Change from Baseline in CSBMs, Difference from Placebo (Week 6, 6 mg, ITT Population): 0.92 CSBMs/week
Change from Baseline in CSBMs, LS Mean (SE) (Week 6, 6 mg, ITT Population): 2.24 (0.153) CSBMs/week
Change from Baseline in CSBMs, Mean (SD) (Week 6, 6 mg, ITT Population): 2.29 (3.384) CSBMs/week
Change from Baseline in CSBMs, Difference from Placebo [7]: 0.93 CSBMs/week
Change from Baseline in CSBMs, LS Mean (SE) [7]: 2.27 (0.155) CSBMs/week
Change from Baseline in CSBMs, Mean (SD) [7]: 2.31 (3.391) CSBMs/week
Change from Baseline in CSBMs, Mean (SD) (Week 6, Active Combined, ITT Population-Excluding Duplicate Patients): 2.38 (3.478) CSBMs/week
Change from Baseline in CSBMs, Mean (SD) (Week 6, Active Combined, ITT Population): 2.36 (3.464) CSBMs/week
Change from Baseline in CSBMs, Difference from Placebo (Week 7, 3 mg, ITT Population): 0.81 CSBMs/week
Change from Baseline in CSBMs, LS Mean (SE) (Week 7, 3 mg, ITT Population): 2.29 (0.155) CSBMs/week
Change from Baseline in CSBMs, Mean (SD) (Week 7, 3 mg, ITT Population): 2.40 (3.413) CSBMs/week
Change from Baseline in CSBMs, Difference from Placebo [8]: 0.83 CSBMs/week
Change from Baseline in CSBMs, LS Mean (SE) [8]: 2.33 (0.158) CSBMs/week
Change from Baseline in CSBMs, Mean (SD) [8]: 2.44 (3.435) CSBMs/week
Change from Baseline in CSBMs, Difference from Placebo (Week 7, 6 mg, ITT Population): 0.82 CSBMs/week
Change from Baseline in CSBMs, LS Mean (SE) (Week 7, 6 mg, ITT Population): 2.31 (0.154) CSBMs/week
Change from Baseline in CSBMs, Mean (SD) (Week 7, 6 mg, ITT Population): 2.38 (3.361) CSBMs/week
Change from Baseline in CSBMs, Difference from Placebo [9]: 0.83 CSBMs/week
Change from Baseline in CSBMs, LS Mean (SE) [9]: 2.34 (0.155) CSBMs/week
Change from Baseline in CSBMs, Mean (SD) [9]: 2.40 (3.369) CSBMs/week
Change from Baseline in CSBMs, Mean (SD) (Week 7, Active Combined, ITT Population-Excluding Duplicate Patients): 2.42 (3.399) CSBMs/week
Change from Baseline in CSBMs, Mean (SD) (Week 7, Active Combined, ITT Population): 2.39 (3.384) CSBMs/week
Change from Baseline in CSBMs, Difference from Placebo (Week 8, 3 mg, ITT Population): 1.01 CSBMs/week
Change from Baseline in CSBMs, LS Mean (SE) (Week 8, 3 mg, ITT Population): 2.52 (0.156) CSBMs/week
Change from Baseline in CSBMs, Mean (SD) (Week 8, 3 mg, ITT Population): 2.67 (3.747) CSBMs/week
Change from Baseline in CSBMs, Difference from Placebo [10]: 1.06 CSBMs/week
Change from Baseline in CSBMs, LS Mean (SE) [10]: 2.56 (0.158) CSBMs/week
Change from Baseline in CSBMs, Mean (SD) [10]: 2.68 (3.765) CSBMs/week
Change from Baseline in CSBMs, Difference from Placebo (Week 8, 6 mg, ITT Population): 0.82 CSBMs/week
Change from Baseline in CSBMs, LS Mean (SE) (Week 8, 6 mg, ITT Population): 2.33 (0.154) CSBMs/week

Source: patent US20160367623A1, “AGONISTS OF GUANYLATE CYCLASE USEFUL FOR THE TREATMENT OF GASTROINTESTINAL DISORDERS, INFLAMMATION, CANCER AND OTHER DISORDERS” (priority 2015, published 2016)
